Experimental data reported in PubChem BioAssay (NCI).
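96-well plates; 48 h exposure; 5 concentrations. Endpoints by linear interpolation between flanking doses. Not reached: highest tested concentration assigned. At the GI50, growth is halved. TGI: total growth inhibition.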

Columns and labels:
Assay in all cases: DTP human tumour cell line panel, 48 h
[1] = tested on: DU-145 prostate
[2] = tested on: UACC-257 melanoma
[3] = tested on: UACC-62 melanoma
[4] = tested on: MALME-3M melanoma
[5] = tested on: COLO 205 colon
[6] = tested on: ACHN renal
[7] = tested on: HT29 colon
[8] = tested on: KM12 colon
[9] = tested on: HCT-116 colon
[10] = tested on: SNB-75 CNS
[11] = tested on: T-47D breast
[12] = tested on: OVCAR-8 ovarian
[13] = tested on: HOP-62 NSCLC
[14] = tested on: MCF7 breast
[15] = tested on: 786-0 renal
[16] = tested on: SR leukemia
[17] = tested on: RPMI-8226 leukemia
[18] = tested on: BT-549 breast
[19] = tested on: NCI-H23 lung
[20] = tested on: A498 renal
[21] = tested on: SNB-19 CNS
[22] = tested on: U251 CNS
[23] = tested on: SK-MEL-28 melanoma
[24] = tested on: SK-MEL-2 melanoma
[25] = tested on: SK-MEL-5 melanoma
[26] = tested on: PC-3 prostate
[27] = tested on: NCI-H460 lung
[28] = tested on: LOX IMVI melanoma
[29] = tested on: SF-539 CNS
[30] = tested on: UO-31 renal

## COc1csc(/C=N/NC(=O)c2[nH]c3ccc(Br)cc3c2-c2ccccc2)c1
[1]
  GI50: 0.0368 µM
  TGI: 11.5 µM
[2]
  GI50: 0.635 µM
  TGI: > 67.2 µM
[3]
  GI50: 0.042 µM
  TGI: 16.7 µM
[4]
  GI50: 0.0453 µM
  TGI: 20.5 µM
[5]
  GI50: 0.0265 µM
  TGI: 0.0703 µM
[6]
  GI50: 0.0634 µM
  TGI: 34.7 µM
[7]
  GI50: 0.0267 µM
  TGI: 0.0691 µM
[8]
  GI50: 0.0373 µM
  TGI: 10.9 µM
[9]
  GI50: 0.0305 µM
  TGI: 1.15 µM
[10]
  GI50: 0.1 µM
  TGI: 3.78 µM
[11]
  GI50: 3.89 µM
  TGI: > 95.8 µM
[12]
  GI50: 0.0289 µM
  TGI: 2 µM
[13]
  GI50: 0.0794 µM
  TGI: 10.5 µM
[14]
  GI50: 0.028 µM
  TGI: 12.7 µM
[15]
  GI50: 0.0851 µM
  TGI: 9.69 µM
[16]
  GI50: 0.0235 µM
  TGI: 23.3 µM
[17]
  GI50: 0.0391 µM
  TGI: 8.21 µM
[18]
  GI50: 0.0305 µM
  TGI: 0.354 µM
[19]
  GI50: 0.0427 µM
  TGI: 17 µM
[20]
  GI50: 24 µM
  TGI: 70.1 µM
[21]
  GI50: 0.047 µM
  TGI: 18.4 µM
[22]
  GI50: 0.032 µM
  TGI: 12.3 µM
[23]
  GI50: 1.73 µM
  TGI: 46.5 µM
[24]
  GI50: 0.0355 µM
  TGI: 0.389 µM
[25]
  GI50: 0.0263 µM
  TGI: 0.0769 µM
[26]
  GI50: 0.0575 µM
  TGI: 48.8 µM
[27]
  GI50: 0.0346 µM
  TGI: 10.6 µM
[28]
  GI50: 0.0302 µM
  TGI: 18.9 µM
[29]
  GI50: 0.0217 µM
  TGI: 0.0531 µM
[30]
  GI50: 0.0602 µM
